Data published in article PMC7158207 (Clinical Pharmacology and Therapeutics, 2019).
≈ marks a conversion by molar mass, not a printed value. Structures can show the parent of a compound that is named as a salt. Where two headings read alike, the source gives them in different places.

Columns and labels:
[1] = cited from earlier work
[2] = Caco-2 apparent passive permeability; type: in vitro ADME; settings: human, Caco-2, pH 7.4
[3] = Thermodynamic solubility measurement in FaSSIF pH 6.5 and SGF pH 1.6; type: physicochemical; settings: 37 °C, thermodynamic from solid
[4] = Dose-exposure proportionality in dose-escalating studies; type: in vivo, human; settings: based on data of ref 20
[5] = cited from earlier work; for AUC fed/fasted ratio / Cmax fed/fasted ratio: erlotinib 150 mg
[6] = after oral administration; cited from earlier work
[7] = ref 36 (dabrafenib), 40 (vemurafenib), 18 (pazopanib); cited from earlier work
[8] = BCS II/IV drugs; cited from earlier work
[9] = single dose, crizotinib 50-300, trametinib 0.125-10, dabrafenib 12-300, gefitinib 50-500 (HV), vemurafenib 240-960, pazopanib 50-2,000 mg
[10] = SGF, pH 1.6, simulated gastric fluid

SMILES	Increase in exposure (dose-exposure proportionality) [1, 9]	Papp [2] [×10⁻⁶ cm/s]	solubility at 24 h ([3]; FaSSIF, pH 6.5, fassif) [µg/mL]	solubility at 24 h [3, 10] [µg/mL]	other results
C[C@@H](Oc1cc(-c2cnn(C3CCNCC3)c2)cnc1N)c1c(Cl)ccc(F)c1Cl [Crizotinib]	Less than proportional	15.3	743 (≈ 1650 µM)		dose proportionality of single-dose PK in the authors' assessment [4]: linear
CC(C)(C)c1nc(-c2cccc(NS(=O)(=O)c3c(F)cccc3F)c2F)c(-c2ccnc(N)n2)s1 [Dabrafenib, Dabrafenib mesylate]	Dose proportional	12.4	3.7	11.7	
C#Cc1cccc(Nc2ncnc3cc(OCCOC)c(OCCOC)cc23)c1 [Erlotinib, erlotinib HCl]		40.4	12.4	166	Increase in exposure (dose-exposure proportionality) ([1]; dosing schedule N.A., imatinib 25-1,000 mg, erlotinib 100-1,000 mg): Dose proportional38; AUC fed/fasted ratio ([5]; first value (first period)): 1.97; Cmax fed/fasted ratio ([5]; first value (first period)): 1.57; AUC fed/fasted ratio ([5]; second value (second period)): 0.93; Cmax fed/fasted ratio ([5]; second value (second period)): 1.15; dose as parent drug in the feces [6]: 1 % of the dose
COc1cc2ncnc(Nc3ccc(F)c(Cl)c3)c2cc1OCCCN1CCOCC1 [Gefitinib, gefitinib]	Dose proportional	10.4	88.7 (≈ 198 µM)		
CS(=O)(=O)CCNCc1ccc(-c2ccc3ncnc(Nc4ccc(OCc5cccc(F)c5)c(Cl)c4)c3c2)o1 [Lapatinib, lapatinib ditosylate monohydrate]		0.21	35	5.5	
Cc1ccc(Nc2nccc(N(C)c3ccc4c(C)n(C)nc4c3)n2)cc1S(N)(=O)=O [Pazopanib, pazopanib hydrochloride (HCl)]	Less than proportional Less than proportional18	28.5	1.2	1080	pKa values (acidic) [7]: 10.218
CC(=O)Nc1cccc(-n2c(=O)n(C3CC3)c(=O)c3c(Nc4ccc(I)cc4F)n(C)c(=O)c(C)c32)c1 [Trametinib, trametinib *DMSO solvate]	More than proportional (Cmax proportional)24	15.4			food effect ([5]; poorly water-soluble anticancer drugs): only a modest food effect, if any
CCCS(=O)(=O)Nc1ccc(F)c(C(=O)c2c[nH]c3ncc(-c4ccc(Cl)cc4)cc23)c1F [Vemurafenib, vemurafenib]	Dose proportional Dose proportional40	0.11	5.4 (≈ 11 µM)	0.3 (≈ 0.612 µM)	
O=C1NC(=O)C(c2ccccc2)(c2ccccc2)N1 [phenytoin]					absolute bioavailability (F) [8]: > 90%
